PubChem BioAssay AID1259411 (Chemical Carcinogenesis Research Information System (CCRIS), 2018)
Calls of active or inactive are those of the source. No rule for the calls is given here.

Test system: rodent carcinogenicity bioassays, tumor incidence
Experiment: CCRIS carcinogenicity studies
Summary of the method: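 NCI-built, expert-reviewed records of carcinogenicity and related test outcomes (mutagenicity, tumor promotion/inhibition) compiled from published and report sources, historical span 1985-2011, not updated.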

## Cc1ccc(/C(=C\CN2CCCC2)c2ccccn2)cc1
Species: MOUSE, Strain/Sex: B6C3F1/FEMALE, Route: ORAL, Dose: 0, 500, 2000, 4000 PPM IN DIET FOR 2 YR (STUDY DURATION: 2 YR), Dose: 0, 500, 2000, 4000 PPM IN DIET FOR 2 YR (STUDY DURATION: 2 YR)
  carcinogen call: inactive; negative
Species: MOUSE, Strain/Sex: B6C3F1/MALE, Route: ORAL, Dose: 0, 500, 2000, 4000 PPM IN DIET FOR 2 YR (STUDY DURATION: 2 YR), Dose: 0, 500, 2000, 4000 PPM IN DIET FOR 2 YR (STUDY DURATION: 2 YR)
  carcinogen call: inactive; negative
Species: RAT, Strain/Sex: F344/FEMALE, Route: ORAL, Dose: 0, 250, 1000, 2000 PPM IN DIET FOR 103 WK (STUDY DURATION: 104 WK), Dose: 0, 250, 1000, 2000 PPM IN DIET FOR 103 WK (STUDY DURATION: 104 WK)
  carcinogen call: inactive; negative
Species: RAT, Strain/Sex: F344/MALE, Route: ORAL, Dose: 0, 250, 1000, 2000 PPM IN DIET FOR 103 WK (STUDY DURATION: 104 WK), Dose: 0, 250, 1000, 2000 PPM IN DIET FOR 103 WK (STUDY DURATION: 104 WK)
  carcinogen call: inactive; negative

## ClC1=C(Cl)[C@]2(Cl)[C@@H]3[C@H]4C[C@H]([C@@H]5O[C@H]45)[C@@H]3[C@@]1(Cl)C2(Cl)Cl
Species: MOUSE, Strain/Sex: B6C3F1/FEMALE, Route: ORAL, Dose: 0, 2.5, 5 PPM IN DIET, TWA, Dose: 0, 2.5, 5 PPM IN DIET, TWA
  carcinogen call: inactive; negative
Species: MOUSE, Strain/Sex: B6C3F1/MALE, Route: ORAL, Dose: 0, 1.6, 3.2 PPM IN DIET, TWA, Dose: 0, 1.6, 3.2 PPM IN DIET, TWA
  carcinogen call: inactive; negative
Species: RAT, Strain/Sex: OSBORNE-MENDEL/FEMALE, Route: ORAL, Dose: 0, 3, 6 PPM IN DIET, TWA, Dose: 0, 3, 6 PPM IN DIET, TWA
  carcinogen call: inactive; negative
Species: RAT, Strain/Sex: OSBORNE-MENDEL/MALE, Route: ORAL, Dose: 0, 2.5, 5 PPM IN DIET, TWA, Dose: 0, 2.5, 5 PPM IN DIET, TWA
  carcinogen call: inactive; negative

## O[C@H]1C=Cc2ccc3cc4ccccc4nc3c2[C@@H]1O
Species: MOUSE, Strain/Sex: SWISS/FEMALE, Route: INTRAPERITONEAL, Dose: 0, 1.05 UMOL GIVEN AS 150 NMOL IN 5 µL DMSO WITHIN 24 HR OF BIRTH, 300 NMOL IN 10 µL DMSO ON D 8 OF LIFE, AND 600 NMOL I
  carcinogen call: inactive; negative
Species: MOUSE, Strain/Sex: SWISS/MALE, Route: INTRAPERITONEAL, Dose: 0, 1.05 UMOL GIVEN AS 150 NMOL IN 5 µL DMSO WITHIN 24 HR OF BIRTH, 300 NMOL IN 10 µL DMSO ON D 8 OF LIFE, AND 600 NMOL I
  carcinogen call: inactive; negative

## CC(=O)Nc1nc(-c2ccc([N+](=O)[O-])o2)cs1
Species: HAMSTER, Route: ORAL, Tumor Site: Type of Lesion: FORESTOMACH, URINARY BLADDER
  carcinogen call: active; positive
Species: MOUSE, Route: ORAL, Tumor Site: Type of Lesion: FORESTOMACH, HEMATOPOIETIC SYSTEM (LEUKEMIA), LYMPHATIC SYSTEM: LYMPHATIC LEUKEMIA, Tumor Site: Type of Lesion: FORESTOMACH, HEMATOPOIETIC SYSTEM (LEUKEMIA), LYMPHATIC SYSTEM: LYMPHATIC LEUKEMIA
  carcinogen call: active; positive
Species: RAT, Route: ORAL, Tumor Site: Type of Lesion: MAMMARY GLAND, LUNG, SALIVARY GLAND, Tumor Site: Type of Lesion: MAMMARY GLAND, LUNG, SALIVARY GLAND
  carcinogen call: active; positive

## C=CN1CCCC1=O
Species: RAT, Strain/Sex: SPRAGUE-DAWLEY/ MALE, Route: INHALATION, Dose: 0, 5, 10, 20 PPM 6 HR/D 5D/WK FOR 24 MO (STUDY DURATION: 24 MO), Dose: 0, 5, 10, 20 PPM 6 HR/D 5D/WK FOR 24 MO (STUDY DURATION: 24 MO), Tumor Site: Type of Lesion: LARYNX: SQUAMOUS CELL CARCINOMA, LIVER: HEPATOCELLULAR CARCINOMA, NASAL CAVITY: ADENOCARCINOMA, ADENOMA, Tumor Site: Type of Lesion: LARYNX: SQUAMOUS CELL CARCINOMA, LIVER: HEPATOCELLULAR CARCINOMA, NASAL CAVITY: ADENOCARCINOMA, ADENOMA
  carcinogen call: active; positive
Species: RAT, Strain/Sex: SPRAGUE-DAWLEY/FEMALE, Route: INHALATION, Dose: 0, 5, 10, 20 PPM 6 HR/D 5 D/WK FOR 24 MO (STUDY DURATION: 24 MO), Dose: 0, 5, 10, 20 PPM 6 HR/D 5 D/WK FOR 24 MO (STUDY DURATION: 24 MO), Tumor Site: Type of Lesion: LARYNX: SQUAMOUS CELL CARCINOMA, LIVER: HEPATOCELLULAR CARCINOMA, NASAL CAVITY: ADENOCARCINOMA, ADENOMA, Tumor Site: Type of Lesion: LARYNX: SQUAMOUS CELL CARCINOMA, LIVER: HEPATOCELLULAR CARCINOMA, NASAL CAVITY: ADENOCARCINOMA, ADENOMA
  carcinogen call: active; positive

## CCO[Si](CCCOCC1CO1)(OCC)OCC (stereo unspecified)
Species: MOUSE, Strain/Sex: C3H/MALE, Route: DERMAL, Dose: 0, 2 MG IN ACETONE 3/WK FOR DURATION OF STUDY (STUDY DURATION: LIFETIME)
  carcinogen call: inactive; negative

## CC(C)[C@H](C(=O)O[C@H](C#N)c1cccc(Oc2ccccc2)c1)c1ccc(Cl)cc1
Species: Mouse, Strain/Sex: Crl:CD-17BR/Female (80/Group), Route: Oral, Dose: 0, 35, 150 ppm in diet for 18 mo, study duration 18 mo, Dose: 0, 35, 150 ppm in diet for 18 mo, study duration 18 mo
  carcinogen call: inactive; negative. a 350 ppm group was terminated at study day 58 due to self-trauma and
Species: Mouse, Strain/Sex: Crl:CD-17BR/Male (80/Group), Route: Oral, Dose: 0, 35, 150 ppm in diet for 18 mo, study duration 18 mo, Dose: 0, 35, 150 ppm in diet for 18 mo, study duration 18 mo
  carcinogen call: inactive; negative. a 350 ppm group was terminated at study day 58 due to self-trauma and

## CC(C)C/C=N/N(C)C=O
Species: MOUSE, Strain/Sex: SWISS/FEMALE, Route: GAVAGE, Dose: 0, 50 UG/G BW DISSOLVED IN PROPYLENE GLYCOL 1/WK FOR 2 WK (STUDY DURATION: LIFETIME), Tumor Site: Type of Lesion: THYROID: TUMOR, LUNG: TUMOR
  carcinogen call: active; positive
Species: MOUSE, Strain/Sex: SWISS/FEMALE, Route: GAVAGE, Dose: 0, 50 UG/G BW DISSOLVED IN PROPYLENE GLYCOL 1/WK FOR 53 WK (STUDY DURATION: LIFETIME), Tumor Site: Type of Lesion: LUNG: TUMOR, LIVER: TUMOR, GALLBLADDER: TUMOR, Tumor Site: Type of Lesion: LUNG: TUMOR, LIVER: TUMOR, GALLBLADDER: TUMOR
  carcinogen call: active; positive
Species: MOUSE, Strain/Sex: SWISS/MALE, Route: GAVAGE, Dose: 0, 50 UG/G BW DISSOLVED IN PROPYLENE GLYCOL 1/WK FOR 2 WK (STUDY DURATION: LIFETIME), Tumor Site: Type of Lesion: LUNG: TUMOR, THYROID: TUMOR
  carcinogen call: active; positive
Species: MOUSE, Strain/Sex: SWISS/MALE, Route: GAVAGE, Dose: 0, 50 UG/G BW DISSOLVED IN PROPYLENE GLYCOL 1/WK FOR 53 WK (STUDY DURATION: LIFETIME), Tumor Site: Type of Lesion: LUNG: TUMOR, LIVER: TUMOR, GALLBLADDER: TUMOR, PREPUTIAL GLAND: TUMOR, Tumor Site: Type of Lesion: LUNG: TUMOR, LIVER: TUMOR, GALLBLADDER: TUMOR, PREPUTIAL GLAND: TUMOR
  carcinogen call: active; positive

## CCCCOCCO
Species: MOUSE, Strain/Sex: B6C3F1/FEMALE, Route: INHALATION, Dose: 0, 62.5, 125, 250 PPM 6 HR/D 5D/WK FOR 104 WK (STUDY DURATION: 104 WK), Dose: 0, 62.5, 125, 250 PPM 6 HR/D 5D/WK FOR 104 WK (STUDY DURATION: 104 WK), Tumor Site: Type of Lesion: FORESTOMACH: SQUAMOUS CELL PAPILLOMA OR CARCINOMA
  carcinogen call: active; positive
Species: MOUSE, Strain/Sex: B6C3F1/MALE, Route: INHALATION, Dose: 0, 62.5, 125, 250 PPM 6 HR/D 5D/WK FOR 104 WK (STUDY DURATION: 104 WK), Dose: 0, 62.5, 125, 250 PPM 6 HR/D 5D/WK FOR 104 WK (STUDY DURATION: 104 WK), Tumor Site: Type of Lesion: LIVER: HEMANGIOSARCOMA, HEPATOCELLULAR CARCINOMA
  carcinogen call: active; positive
Species: RAT, Strain/Sex: F344/FEMALE, Route: INHALATION, Dose: 0, 31.2, 62.5, 125 PPM 6 HR/D 5D/WK FOR 104 WK (STUDY DURATION: 104 WK), Dose: 0, 31.2, 62.5, 125 PPM 6 HR/D 5D/WK FOR 104 WK (STUDY DURATION: 104 WK), Tumor Site: Type of Lesion: ADRENAL MEDULLA: BENIGN OR MALIGNANT PHEOCHROMOCYTOMA
  carcinogen call: equivocal
Species: RAT, Strain/Sex: F344/MALE, Route: INHALATION, Dose: 0, 31.2, 62.5, 125 PPM 6 HR/D 5D/WK FOR 104 WK (STUDY DURATION: 104 WK), Dose: 0, 31.2, 62.5, 125 PPM 6 HR/D 5D/WK FOR 104 WK (STUDY DURATION: 104 WK)
  carcinogen call: inactive; negative
